Values of other authors in patent publication US20120171125A1, “Methods for Enhancing the Cognitive Function” (UCB PHARMA, S.A., priority 2009, published 2012).

Experiments:
[1] = system: epilepsy; details: in vivo
[2] = target: SV2A (Homo sapiens, UniProt Q7L0J3)
[3] = system: cognitive function; details: animals and humans

Sequence of SV2A (Q7L0J3 whole entry, species assumed): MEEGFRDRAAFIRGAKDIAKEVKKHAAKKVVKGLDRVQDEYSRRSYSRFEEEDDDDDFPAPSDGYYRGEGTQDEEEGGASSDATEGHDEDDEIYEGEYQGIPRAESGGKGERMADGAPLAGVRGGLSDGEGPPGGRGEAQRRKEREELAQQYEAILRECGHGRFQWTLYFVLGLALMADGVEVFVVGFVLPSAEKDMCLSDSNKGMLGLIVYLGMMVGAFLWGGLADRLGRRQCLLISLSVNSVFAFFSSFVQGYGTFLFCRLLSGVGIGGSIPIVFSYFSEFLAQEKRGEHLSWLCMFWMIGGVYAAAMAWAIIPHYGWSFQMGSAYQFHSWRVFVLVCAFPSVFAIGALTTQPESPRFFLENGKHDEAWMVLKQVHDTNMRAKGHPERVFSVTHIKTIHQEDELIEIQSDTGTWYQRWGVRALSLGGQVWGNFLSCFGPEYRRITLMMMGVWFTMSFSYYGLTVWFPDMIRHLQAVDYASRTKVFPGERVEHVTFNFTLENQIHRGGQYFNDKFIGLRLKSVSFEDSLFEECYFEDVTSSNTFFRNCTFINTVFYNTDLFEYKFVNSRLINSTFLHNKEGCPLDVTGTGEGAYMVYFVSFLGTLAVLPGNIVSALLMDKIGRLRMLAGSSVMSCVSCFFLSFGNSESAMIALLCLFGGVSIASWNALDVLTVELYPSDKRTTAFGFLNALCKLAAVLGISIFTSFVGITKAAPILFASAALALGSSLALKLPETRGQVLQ

## CC[C@H](C(N)=O)N1CCCC1=O [(R)-(+)-alpha-ethyl-2-oxo-1-pyrrolidine acetamide]
[1]
  antiepileptic activity: completely lacks activity

## CC[C@@H](C(N)=O)N1C[C@H](C=C(F)F)CC1=O [Seletracetam, (2S)-2-[(4S)-4-(2,2-difluorovinyl)-2-oxo-pyrrolidinyl]butanamide]
[2]
  affinity / binding to SV2A: potent affinity to SV2A
[1]
  antiepileptic activity: very potent antiepileptic activities

## CCC[C@@H]1CC(=O)N([C@@H](CC)C(N)=O)C1 [brivaracetam, (2S)-2-[(4R)-2-oxo-4-propyl-pyrrolidin-1-yl]butanamide]
[2]
  affinity / binding to SV2A: potent affinity to SV2A
[1]
  antiepileptic activity: very potent antiepileptic activities

## CC[C@@H](C(N)=O)N1CCCC1=O [levetiracetam, (S)-(−)-alpha-ethyl-2-oxo-1-pyrrolidine acetamide]
[3]
  impact on the cognitive function: no impact on the cognitive function

## NC(=O)CN1CCCC1=O [piracetam]
[2]
  affinity / binding to SV2A: does not bind to SV2A
